Data from ChEMBL document CHEMBL3044730, “Synthesis, antimycobacterial, antiviral, antimicrobial activities, and QSAR studies of nicotinic acid benzylidene hydrazide derivatives” (Med Chem Res, 2012).
Converted amounts (≈) assume the structure as drawn.

Experiments:
[1] = test system: Human herpesvirus 5 strain AD169; test: Antiviral activity against Human herpesvirus 5 strain AD169 Davis infected human HEL cells assessed as inhibition of virus-induced cytopathicity by microscopy; type: functional, organism-based; settings: Human betaherpesvirus 5, Davis
[2] = test system: Human immunodeficiency virus 2; test: Antiviral activity against Human immunodeficiency virus type 2 (ISOLATE ROD) infected MT4 cells assessed as inhibition of virus-induced cytopathic effect after 4 days by MTT assay; type: functional, organism-based; settings: Human immunodeficiency virus 2, ISOLATE ROD, MT4, 96 h
Candida albicans [3] = test: Antimicrobial activity against Candida albicans after 2 days by serial dilution method; type: functional; set-up: unit not given here
Vaccinia virus = test: Antiviral activity against Vaccinia virus infected human HEL cells assessed as inhibition of virus-induced cytopathicity by microscopy; type: functional, organism-based; settings: Orthopoxvirus vaccinia
[4] = Cytotoxicity against Chlorocebus aethiops (African green monkey) Vero cells assessed as alteration in cell morphology by microscopy; type: cell-based; settings: chlorocebus sabaeus
Coxsackievirus B4 [5] = test: Antiviral activity against Human coxsackievirus B4 infected Vero cells assessed as inhibition of virus-induced cytopathicity; type: functional, organism-based; settings: Enterovirus B
Punta Toro virus = test: Antiviral activity against Punta Toro virus infected Vero cells assessed as inhibition of virus-induced cytopathicity; type: functional, organism-based
Staphylococcus aureus = test: Antimicrobial activity against Staphylococcus aureus after 24 hr by serial dilution method; type: functional; set-up: unit not given here
Human alphaherpesvirus 1 [6] = test: Antiviral activity against Human herpesvirus 1 strain KOS infected in human HEL cells assessed as inhibition of virus-induced cytopathicity by microscopy by microscopy; type: functional, organism-based; settings: Human alphaherpesvirus 1, KOS
Candida albicans [7] = test: Antimicrobial activity against Candida albicans after 7 days by serial dilution method; type: functional; set-up: unit not given here
[8] = Cytotoxicity against Homo sapiens (human) MT4 cells after 4 days by MTT assay; type: cell-based
Sindbis virus = test: Antiviral activity against Sindbis virus infected Vero cells assessed as inhibition of virus-induced cytopathicity; type: functional, organism-based
[9] = test system: Human herpesvirus 3 strain Oka vaccine; test: Antiviral activity against Human herpesvirus 3 strain Oka vaccine OKA 07-1 (Varicella zoster virus) infected in human HEL cells assessed as inhibition of virus-induced cytopathicity; type: functional, organism-based; settings: Human alphaherpesvirus 3, OKA 07-1, HEL
[10] = Cytotoxicity against Homo sapiens (human) HEL cells assessed as alteration in cell morphology by microscopy; type: cell-based
Bacillus subtilis = test: Antimicrobial activity against Bacillus subtilis after 24 hr by serial dilution method; type: functional; set-up: unit not given here
Human alphaherpesvirus 2 = test: Antiviral activity against Human herpesvirus 2 strain G infected human HEL cells assessed as inhibition of virus-induced cytopathicity by microscopy; type: functional, organism-based; settings: Human alphaherpesvirus 2, strain G
Human alphaherpesvirus 1 [11] = test: Antiviral activity against TK(-) aciclovir-resistant Human herpesvirus 1 strain KOS infected in human HEL cells assessed as inhibition of virus-induced cytopathicity; type: functional, organism-based; settings: Human alphaherpesvirus 1, KOS
[12] = test system: Mammalian orthoreovirus 1; test: Antiviral activity against Mammalian orthoreovirus 1 infected Vero cells assessed as inhibition of virus-induced cytopathicity by microscopy; type: functional, organism-based; settings: Mammalian orthoreovirus 1, Vero
[13] = test system: Respiratory syncytial virus; test: Antiviral activity against Respiratory syncytial virus infected human HeLa cells assessed as inhibition of virus-induced cytopathicity by microscopy; type: functional, organism-based
[14] = test system: Human immunodeficiency virus 1; test: Antiviral activity against Human immunodeficiency virus 1 IIIB infected MT4 cells assessed as inhibition of virus-induced cytopathic effect after 4 days by MTT assay; type: functional, organism-based; settings: MT4, 96 h
Human respirovirus 3 = test: Antiviral activity against Human parainfluenza virus 3 infected Vero cells assessed as inhibition of virus-induced cytopathicity by microscopy; type: functional, organism-based; settings: Human respirovirus 3, Vero
Coxsackievirus B4 [15] = test: Antiviral activity against Human coxsackievirus B4 infected human HeLa cells assessed as inhibition of virus-induced cytopathicity by microscopy; type: functional, organism-based; settings: Enterovirus B
[16] = Cytotoxicity against Homo sapiens (human) HeLa cells assessed as alteration in cell morphology by microscopy; type: cell-based
Escherichia coli = test: Antimicrobial activity against Escherichia coli after 24 hr by serial dilution method; type: functional; set-up: unit not given here
[17] = test system: Vesicular stomatitis virus; test: Antiviral activity against Vesicular stomatitis virus infected human HeLa cells assessed as inhibition of virus-induced cytopathicity by microscopy; type: functional, organism-based
[18] = test system: Mycobacterium tuberculosis; test: Antimicrobial activity against Mycobacterium tuberculosis by agar dilution method; type: functional

Structure (SMILES)	EC50 [1] [µg/mL]	EC50 [2] [µg/mL]	-logMIC (Candida albicans [3])	EC50 (Vaccinia virus) [µg/mL]	MCC [4] [µg/mL]	EC50 (Coxsackievirus B4 [5]) [µg/mL]	EC50 (Punta Toro virus) [µg/mL]	-logMIC (Staphylococcus aureus)	EC50 (Human alphaherpesvirus 1 [6]) [µg/mL]	-logMIC (Candida albicans [7])	CC50 at 96 h [8] [µg/mL]	EC50 (Sindbis virus) [µg/mL]	EC50 [9] [µg/mL]	CC50 [10] [µg/mL]	MCC [10] [µg/mL]	-logMIC (Bacillus subtilis)	EC50 (Human alphaherpesvirus 2) [µg/mL]	EC50 (Human alphaherpesvirus 1 [11]) [µg/mL]	EC50 [12] [µg/mL]	EC50 [13] [µg/mL]	also measured
O=C(N/N=C/c1ccc(Cl)cc1)c1cccnc1	> 100	> 76	1.32	> 100	> 100	> 100	> 100	1.32	> 100	1.92	76 (≈ 293 µM)	> 100	> 100	29 (≈ 112 µM)	> 100	1.02	> 100	> 100	> 100	> 100	EC50 [14]: > 76 µg/mL; EC50 (Human respirovirus 3): > 100 µg/mL; EC50 (Coxsackievirus B4 [15]): > 100 µg/mL; MCC [16]: > 100 µg/mL; -logMIC (Escherichia coli): 1.32; EC50 [17]: > 100 µg/mL; MIC [18]: 25 µg/mL (≈ 96.3 µM)
O=C(N/N=C/c1cccc(Br)c1)c1cccnc1	> 100	> 66	1.38	> 100	≥ 100	> 100	> 100	1.09	> 100	1.99	66 (≈ 217 µM)	> 100	> 100	55 (≈ 181 µM)	> 100	1.39	> 100	> 100	> 100	> 100	EC50 [14]: > 66 µg/mL; EC50 (Human respirovirus 3): > 100 µg/mL; EC50 (Coxsackievirus B4 [15]): > 100 µg/mL; MCC [16]: ≥ 100 µg/mL; -logMIC (Escherichia coli): 1.39; EC50 [17]: > 100 µg/mL; MIC [18]: > 25 µg/mL
O=C(N/N=C/c1cccc(Cl)c1)c1cccnc1	> 100	> 62	1.32	> 100	> 100	> 100	> 100	1.32	> 100	1.92	62 (≈ 239 µM)	> 100	> 100	53 (≈ 204 µM)	> 100	1.02	> 100	> 100	34 (≈ 131 µM)	> 100	EC50 [14]: > 62 µg/mL; EC50 (Human respirovirus 3): > 100 µg/mL; EC50 (Coxsackievirus B4 [15]): > 100 µg/mL; MCC [16]: > 100 µg/mL; -logMIC (Escherichia coli): 1.02; EC50 [17]: > 100 µg/mL; MIC [18]: > 25 µg/mL
O=C(N/N=C/c1ccccc1Cl)c1cccnc1	> 100	> 0.57	1.32	> 100	> 100	> 100	> 100	1.32	> 100	1.32	≥ 0.57	> 100	> 100	12 (≈ 46.2 µM)	> 100	1.02	> 100	> 100	> 100	> 20	EC50 [14]: > 0.57 µg/mL; EC50 (Human respirovirus 3): > 100 µg/mL; EC50 (Coxsackievirus B4 [15]): > 20 µg/mL; MCC [16]: 100 µg/mL; -logMIC (Escherichia coli): 1.02; EC50 [17]: > 20 µg/mL; MIC [18]: > 25 µg/mL
O=C(N/N=C/c1ccccc1Br)c1cccnc1	> 100	> 0.22	1.39	> 20	> 100	> 100	> 100	1.09	> 20	1.69	≥ 0.22	> 100	> 51	2.6 (≈ 8.55 µM)	100	1.39	> 20	> 20	> 100	> 100	EC50 [14]: > 0.22 µg/mL; EC50 (Human respirovirus 3): > 100 µg/mL; EC50 (Coxsackievirus B4 [15]): > 100 µg/mL; MCC [16]: > 100 µg/mL; -logMIC (Escherichia coli): 1.39; EC50 [17]: > 100 µg/mL; MIC [18]: > 25 µg/mL
O=C(N/N=C/c1ccc(Br)cc1)c1cccnc1	> 100	> 61	1.39	> 100	> 100	> 100	> 100	1.09	> 100	1.39	61 (≈ 201 µM)	> 100	> 100	48 (≈ 158 µM)	> 100	1.39	> 100	> 100	> 100	> 100	EC50 [14]: > 61 µg/mL; EC50 (Human respirovirus 3): > 100 µg/mL; EC50 (Coxsackievirus B4 [15]): > 100 µg/mL; MCC [16]: > 100 µg/mL; -logMIC (Escherichia coli): 1.39; EC50 [17]: > 100 µg/mL; MIC [18]: 25 µg/mL (≈ 82.2 µM)
O=C(N/N=C/c1ccc(F)cc1)c1cccnc1	> 100	> 125	1.29	> 100	> 100	> 100	> 100	1.29	> 100	1.59	> 125	> 100	> 100	> 100	> 100	1.29	> 100	> 100	> 100	> 100	EC50 [14]: > 125 µg/mL; EC50 (Human respirovirus 3): > 100 µg/mL; EC50 (Coxsackievirus B4 [15]): > 100 µg/mL; MCC [16]: > 100 µg/mL; -logMIC (Escherichia coli): 1.29; EC50 [17]: > 100 µg/mL; MIC [18]: 25 µg/mL (≈ 103 µM)
O=C(N/N=C/c1ccccc1O)c1cccnc1 [N'-(2-HYDROXYBENZYLIDENE)NICOTINOHYDRAZIDE]	> 0.8	> 0.61	1.28	> 4	4	> 0.8	> 0.8	1.29	> 4	1.29	0.61 (≈ 2.53 µM)	> 0.8	> 2.2	0.42 (≈ 1.74 µM)	≥ 4	1.59	> 4	> 4	> 0.8	> 0.8	EC50 [14]: > 0.61 µg/mL; EC50 (Human respirovirus 3): > 0.8 µg/mL; EC50 (Coxsackievirus B4 [15]): > 0.8 µg/mL; MCC [16]: 4 µg/mL; -logMIC (Escherichia coli): 1.29; EC50 [17]: > 0.8 µg/mL; MIC [18]: > 25 µg/mL
O=C(N/N=C/c1ccccc1)c1cccnc1 [NICOTINIC ACID BENZYLIDENE-HYDRAZIDE]	> 100	> 125	1.25	> 100	> 100	> 100	> 100	0.35	> 100	1.86	> 125	> 100	> 100	> 100	> 100	0.95	> 100	> 100	> 100	> 20	EC50 [14]: > 125 µg/mL; EC50 (Human respirovirus 3): > 100 µg/mL; EC50 (Coxsackievirus B4 [15]): > 20 µg/mL; MCC [16]: 100 µg/mL; -logMIC (Escherichia coli): 1.26; EC50 [17]: > 20 µg/mL; MIC [18]: > 25 µg/mL
